{"source": "patent US20260207600A1", "about": "“METHODS OF TREATMENT WITH MYOSIN MODULATOR” (MYOKARDIA, INC., priority 2019, published 2026)", "key": {"CYP3A4/5": {"test_system": "CYP3A4/5", "experiment": "In vitro contribution of CYP enzymes to mavacamten metabolism", "assay_type": "in vitro ADME"}, "[1]": {"test_system": "conscious fully-instrumented dogs with normal cardiac function", "experiment": "Acute β-AR (dobutamine) challenge after mavacamten in conscious instrumented dogs", "assay_type": "in vivo, dog", "description": "In addition, the effects of MAVA (at 1.5 mg/kg PO, via gavage) on cardiac reserve were evaluated via acute β-AR challenges (dobutamime: 2, 5, and 10 ug/kg/min IV) in conscious fully-instrumented (LVPV group) dogs with normal cardiac function (n=8). These challenges were performed before/after dosing (+3-hour) in control- and MAVA-treated animals both under normal cardiac physiological conditions (n=4) and under (mild) concomitant cardio-depression induced via either selective β-AR blockade (+BB, metoprolol 0.5±0.1 mg/kg PO tid; n=4) or L-type Ca2+-channel blockade (+CCB, verapamil at 5±1 mg/kg PO tid; n=4); pharmacological blockades were established for 7 days prior to the MAVA treatment. Both peak and dose-responses were evaluated at steady state.\nThroughout these experiments, analog signals were digitally acquired (1000 Hz) and recorded continuously with a data acquisition/analysis system (IOX; EMKA Technologies). Heart rate (HR), end-systolic (ESP) and end-diastolic pressures (EDP), as well as the peak rates of pressure rise/decline (dP/dtmax and dP/dtmin), the contractility index (CI: dP/dt/P at dP/dtmax), and the time-constant of myocardial relaxation (tau½, time for 50% decay from dP/dtmin) were derived from the LV pressure signal. Meanwhile, the end-systolic (ESV) and end-diastolic volumes (EDV) were measured from the LV volume signal derived from the implanted myocardial crystals. LV volumes were derived assuming a Teichholz model, and stroke volume (SV=EDV−ESV), ejection fraction (EF=SV/EDV), as well as cardiac output (CO=SV·HR) were calculated; in a subset of animals, SV and CO values were verified from data derived from the implanted aortic flow proble. […] The slopes of the preload-recruitable stroke work (PRSW; stroke work vs. EDV) and the end-systolic pressure-volume relationships (ESPVR; end-systolic elastance, Ees) were derived by software using linear models (IOX; EMKA Technologies), and were used as load-independent inotropic indices. Ventricular load was estimated by the effective arterial elastance (Ea=ESP/SV). […]"}, "[2]": {"experiment": "Solubility estimates at ambient temperature", "assay_type": "physicochemical", "conditions": "thermodynamic from solid, Form A (Lot 2-4), read-out: Solubility (estimate)", "description": "Solubilities were calculated based on the total solvent used to give a solution; actual solubilities may be greater because of the volume of solvent portions utilized or a slow rate of dissolution. […] If dissolution occurred at the first aliquot, the value was reported as “>”.\nSolubility estimates at ambient temperature were performed in 25 solvents and solvent systems using Form A (Lot 2-4) (Table 13.3)."}, "[3]": {"test_system": "isolated adult rat ventricular myocytes", "experiment": "Counteraction of mavacamten effects by isoproterenol in isolated myocytes in vitro", "assay_type": "cell-based", "from_the_text": "Additional supportive measures, e.g., intravenous volume supplementation and/or the use of arterial vasoconstrictor agents (a adrenergic agonists) may complement the use of a β adrenergic agonist."}}, "note": "Like-named read-outs stand apart in the source and are kept apart here."}
{"compound": "CC(C)n1c(=O)cc(N[C@@H](C)c2ccccc2)[nH]c1=O", "note": "[mavacamten, (S)-3-Isopropyl-6-((1-phenylethyl)amino)pyrimidine-2, 4(1H,3H)-dione]", "values": [{"measurement": "percent contribution to the metabolism of mavacamten", "setting": "CYP3A4/5", "value": 18, "unit": "%"}, {"measurement": "β-AR induced acceleration of tau", "setting": "[1]; at any given dP/dtmax gain", "value": "enhanced the β-AR induced acceleration of tau"}, {"measurement": "dobutamine-triggered stroke-volume/cardiac output recruitments", "setting": "[1]; before (control) vs under acute mavacamten treatment", "value": "comparable stroke-volume/cardiac output recruitments"}, {"measurement": "β-AR elevations in dP/dtmax and CI", "setting": "[1]; dobutamine challenge", "value": "blunted β-AR elevations in dP/dtmax and CI"}, {"measurement": "solubility", "setting": "[2]; aqueous with cosolvent or surfactant or cyclodextrin, DMSO:water (50:50)", "value": "< 1", "unit": "mg/mL"}, {"measurement": "solubility", "setting": "[2]; aqueous with cosolvent or surfactant or cyclodextrin, MeOH:water (50:50)", "value": "< 1", "unit": "mg/mL"}, {"measurement": "solubility", "setting": "[2]; organic solvent or mixture, Anisole", "value": "< 1", "unit": "mg/mL"}, {"measurement": "solubility", "setting": "[2]; organic solvent or mixture, DMF:CHCl3 (90:10)", "value": "~27", "unit": "mg/mL"}, {"measurement": "solubility", "setting": "[2]; organic solvent or mixture, DMF:EtOAc (80:20)", "value": "~27", "unit": "mg/mL"}, {"measurement": "solubility", "setting": "[2]; organic solvent or mixture, DMF:EtOH (75:25)", "value": "~28", "unit": "mg/mL"}, {"measurement": "solubility", "setting": "[2]; organic solvent or mixture, DMF:anisole (90:10)", "value": "~28", "unit": "mg/mL"}, {"measurement": "solubility", "setting": "[2]; organic solvent or mixture, DMF:iPrOH (80:20)", "value": "~43", "unit": "mg/mL"}, {"measurement": "solubility", "setting": "[2]; organic solvent or mixture, DMF:toluene (90:10)", "value": "~42", "unit": "mg/mL"}, {"measurement": "solubility", "setting": "[2]; organic solvent or mixture, DMSO:p-dioxane (80:20)", "value": "> 42", "unit": "mg/mL"}, {"measurement": "solubility", "setting": "[2]; organic solvent or mixture, DMSO:water (90:10)", "value": "~5", "unit": "mg/mL"}, {"measurement": "solubility", "setting": "[2]; organic solvent or mixture, HFIPA", "value": "> 60", "unit": "mg/mL"}, {"measurement": "solubility", "setting": "[2]; organic solvent or mixture, HFIPA:water (90:10)", "value": "~28", "unit": "mg/mL"}, {"measurement": "solubility", "setting": "[2]; organic solvent or mixture, MIBK", "value": "< 1", "unit": "mg/mL"}, {"measurement": "solubility", "setting": "[2]; organic solvent or mixture, MeOH", "value": "~2", "unit": "mg/mL"}, {"measurement": "solubility", "setting": "[2]; organic solvent or mixture, MeOH:water (90:10)", "value": "< 1", "unit": "mg/mL"}, {"measurement": "solubility", "setting": "[2]; organic solvent or mixture, NMP:EtOAc (80:20)", "value": "~45", "unit": "mg/mL"}, {"measurement": "solubility", "setting": "[2]; organic solvent or mixture, NMP:MeOH (75:25)", "value": "~38", "unit": "mg/mL"}, {"measurement": "solubility", "setting": "[2]; organic solvent or mixture, NMP:toluene (80:20)", "value": "~27", "unit": "mg/mL"}, {"measurement": "solubility", "setting": "[2]; organic solvent or mixture, NMP:water (90:10)", "value": "~23", "unit": "mg/mL"}, {"measurement": "solubility", "setting": "[2]; organic solvent or mixture, THF", "value": "~2", "unit": "mg/mL"}, {"measurement": "solubility", "setting": "[2]; organic solvent or mixture, THF:water (90:10)", "value": "~13", "unit": "mg/mL"}, {"measurement": "solubility", "setting": "[2]; organic solvent or mixture, iPrOH", "value": "< 1", "unit": "mg/mL"}, {"measurement": "solubility", "setting": "[2]; organic solvent or mixture, nitromethane", "value": "< 1", "unit": "mg/mL"}, {"measurement": "solubility", "setting": "[2]; organic solvent or mixture, toluene", "value": "< 1", "unit": "mg/mL"}, {"measurement": "Reversal of pharmacologic effects by β adrenergic agonist", "setting": "[3]", "value": "can be counteracted by β adrenergic agonists"}]}
